This is an account of results in ChEMBL document CHEMBL4433257, “Novel conjugates of podophyllotoxin and coumarin: Synthesis, cytotoxicities, cell cycle arrest, binding CT DNA and inhibition of Topo IIβ” (Bioorg Med Chem Lett, 2019).

Calls of active or inactive are those of the source. The rule behind the calls is not given here.

One assay has as its system HepG2. In words: Cytotoxicity against human HepG2 cells incubated for 48 hrs by MTT assay. The following applies: HepG2, 48 h. Format: functional, cell-based.
In another assay the test system is A549. In words: Cytotoxicity against human A549 cells incubated for 48 hrs by MTT assay. Format: functional, cell-based. The settings on record: A549, 48 h. (In general: Tetrazolium assays rely on reduction of a dye to a coloured formazan, in cell work by metabolically active cells.)
The test system of a further assay is HeLa. Briefly: Cytotoxicity against human HeLa cells incubated for 48 hrs by MTT assay. Format: functional, cell-based.
The subject of assay [1] is LoVo. In words: Cytotoxicity against human LoVo cells incubated for 48 hrs by MTT assay. Format: functional, cell-based.
In assay [2] the test system is Calf thymus DNA. Briefly: Binding affinity to calf thymus DNA assessed as reduction in absorbance of DNA at 20 to 40 uM by UV/visible spectrophotometric analysis. It counts as nucleic-acid assay. The following applies: Bos taurus.
Assay [3] relates to LoVo. Briefly: Cell cycle arrest in human LoVo cells assessed as accumulation at G1 phase at 5 uM incubated for 24 hrs by propidium iodide staining based flow cytometry analysis (reference value: 51.9%). It counts as functional.
In assay [4] the test system is Calf thymus DNA. Briefly: Binding affinity to calf thymus DNA assessed as reduction in compound emission intensity at 10 uM using varying DNA level by spectrofluorimetric analysis. It counts as nucleic-acid assay. The settings on record: Bos taurus.
Assay [5] has as its system LoVo. Briefly: Antiproliferative activity against human LoVo cells assessed as interference with mitosis at 10 to 20 uM incubated for 6 hrs by immunofluorescence microscopy assay. Format: functional, cell-based.
Assay [6] deals with LoVo. Briefly: Induction of cell cycle arrest in human LoVo cells assessed as change in cdc2 gene expression level at 1 to 10 uM incubated for 24 hrs by Western blot analysis. Format: functional, cell-based.
For assay [7], the system named is LoVo. Briefly: Antiproliferative activity against human LoVo cells assessed as induction of nuclear cleavage at 20 uM incubated for 6 hrs by immunofluorescence microscopy assay. It counts as functional, cell-based.
The subject of assay [8] is LoVo. In words: Cell cycle arrest in human LoVo cells assessed as accumulation at G1 phase at 10 uM incubated for 24 hrs by propidium iodide staining based flow cytometry analysis (reference value: 51.9%). It counts as functional. A general note: A flow cytometer gives signals particle by particle.
For assay [9], the system named is LoVo. Briefly: Cell cycle arrest in human LoVo cells assessed as accumulation at G1 phase at 5 uM incubated for 48 hrs by propidium iodide staining based flow cytometry analysis relative to control. Format: functional.
Assay [10] has as its system LoVo. Briefly: Induction of cell cycle arrest in human LoVo cells assessed as decrease in topo 2alpha expression level at 5 uM incubated for 12 hrs by Western blot analysis. Format: functional, cell-based. In general terms: A western blot detects proteins with antibodies after separation by electrophoresis.
Assay [11] relates to LoVo. In words: Antiproliferative activity against human LoVo cells assessed as abnormal mitotic spindle formation at 20 uM incubated for 6 hrs by immunofluorescence microscopy assay. It counts as functional, cell-based.
In assay [12] the test system is LoVo. In words: Induction of cell cycle arrest in human LoVo cells assessed as decrease in cyclin D1 gene expression level incubated for 24 hrs by Western blot analysis. It counts as functional, cell-based.
For assay [13], the system named is LoVo. In words: Cell cycle arrest in human LoVo cells assessed as increase in accumulation at G1 phase incubated for 24 hrs by propidium iodide staining based flow cytometry analysis. Format: functional.
In assay [14] the test system is Calf thymus DNA. In words: Binding affinity to calf thymus DNA assessed as reduction in absorbance of DNA at 50 uM using varying DNA level by UV/visible spectrophotometric analysis. The settings on record: Bos taurus. Format: nucleic-acid assay.
The test system of assay [15] is LoVo. In words: Cell cycle arrest in human LoVo cells assessed as accumulation at G1 phase at 5 uM incubated for 72 hrs by propidium iodide staining based flow cytometry analysis relative to control. It counts as functional.
Assay [16] has as its system LoVo. Briefly: Induction of cell cycle arrest in human LoVo cells assessed as change in cyclin B1 gene expression level at 1 to 10 uM incubated for 24 hrs by Western blot analysis. It counts as functional, cell-based.
The test system of assay [17] is LoVo. In words: Antiproliferative activity against human LoVo cells assessed as induction of nuclei damage at 10 to 20 uM incubated for 6 hrs by immunofluorescence microscopy assay. It counts as functional, cell-based.
The subject of assay [18] is LoVo. In words: Antiproliferative activity against human LoVo cells assessed as meshy microtubule network shrinkage around nucleus incubated for 6 hrs by immunofluorescence microscopy assay. It counts as functional, cell-based.
The test system of assay [19] is LoVo. In words: Antiproliferative activity against human LoVo cells assessed as disruption of microtubule organization at 10 to 20 uM incubated for 6 hrs by immunofluorescence microscopy assay. Format: functional, cell-based.
The subject of assay [20] is LoVo. In words: Induction of cell cycle arrest in human LoVo cells assessed as decrease in topo 2beta expression level at 5 uM incubated for 12 hrs by Western blot analysis. Format: functional, cell-based.
The subject of assay [21] is LoVo. Briefly: Induction of cell cycle arrest in human LoVo cells assessed as increase in P21 gene expression level incubated for 24 hrs by Western blot analysis. It counts as functional, cell-based.
In assay [22] the test system is LoVo. In words: Cell cycle arrest in human LoVo cells assessed as decrease in G2/M phase cell count incubated for 24 hrs by propidium iodide staining based flow cytometry analysis. It counts as functional.
The subject of assay [23] is LoVo. In words: Induction of cell cycle arrest in human LoVo cells assessed as change in P21 gene expression level at 10 uM incubated for 24 hrs by Western blot analysis. Format: functional, cell-based.
Assay [24] concerns LoVo. Briefly: Induction of cell cycle arrest in human LoVo cells assessed as decrease in cyclin D1 gene expression level at 10 uM incubated for 24 hrs by Western blot analysis. Format: functional, cell-based.
The test system of assay [25] is LoVo. Briefly: Antiproliferative activity against human LoVo cells assessed as disorganization of microtubule network at 10 uM incubated for 6 hrs by immunofluorescence microscopy assay. It counts as functional, cell-based.
Assay [26] has as its system LoVo. Briefly: Induction of cell cycle arrest in human LoVo cells assessed as change in cdc2 gene expression level at 10 uM incubated for 24 hrs by Western blot analysis. Format: functional, cell-based.
In assay [27] the test system is LoVo. In words: Antiproliferative activity against human LoVo cells assessed as nuclear changes at 10 uM incubated for 6 hrs by immunofluorescence microscopy assay. It counts as functional, cell-based.
Assay [28] concerns LoVo. Briefly: Induction of cell cycle arrest in human LoVo cells assessed as change in cyclin D1 gene expression level at 10 uM incubated for 24 hrs by Western blot analysis. Format: functional, cell-based.

With `COc1cc([C@@H]2c3cc4c(cc3[C@@H](n3cc(COc5cc(=O)oc6ccc(C)cc56)nn3)[C@H]3COC(=O)[C@H]23)OCO4)cc(OC)c1O`, the IC50 – broadly, the point on the concentration scale where inhibition reaches its midpoint – in the assay with HepG2 is 40.2 µM; in the assay on A549, greater than 100 µM; in the assay on HeLa it was 45.4 µM; in the assay with LoVo [1], 33.2 µM.
Turning to `COc1ccc2c(OCc3cn([C@@H]4c5cc6c(cc5[C@@H](c5cc(OC)c(O)c(OC)c5)[C@H]5C(=O)OC[C@@H]54)OCO6)nn3)cc(=O)oc2c1`, the IC50 with HepG2 is 27.5 µM; in the assay on A549, 40.3 µM; in the assay on HeLa, greater than 100 µM; with LoVo [1], greater than 100 µM.
As to `COc1ccc2oc(=O)cc(NCc3cn([C@@H]4c5cc6c(cc5[C@@H](c5cc(OC)c(O)c(OC)c5)[C@H]5C(=O)OC[C@@H]54)OCO6)nn3)c2c1`, the outcome with Calf thymus DNA [2], with Calf thymus DNA [4], with LoVo [5], in the assay with LoVo [7], with LoVo [10] and with LoVo [11] was Active. The outcome in the assay with LoVo [17], in the assay on LoVo [18], in the assay on LoVo [19] and in the assay with LoVo [20] was Active. Further, the IC50 in the assay on HepG2 came out at 9.9 µM; in the assay with A549 it was 17.5 µM; in the assay with HeLa it was 9.7 µM; in the assay on LoVo [1], 4.9 µM. In addition, the Activity is 62% in the assay with LoVo [3]; 79% with LoVo [8]; 70.1% in the assay with LoVo [9]; “Dose-dependent effect” in the assay on LoVo [12]; “Dose-dependent effect” with LoVo [13]; 90% in the assay on LoVo [15]. Besides, the Activity entry in the assay on LoVo [21] and in the assay on LoVo [22] was “Dose-dependent effect” each time. Further, the outcome in the assay with LoVo [6], in the assay on Calf thymus DNA [14] and in the assay on LoVo [16] was inactive.
For `COc1cc([C@@H]2c3cc4c(cc3[C@@H](O[C@@H]3O[C@@H]5CO[C@@H](C)O[C@H]5[C@H](O)[C@H]3O)[C@H]3COC(=O)[C@H]23)OCO4)cc(OC)c1O` [ETOPOSIDE], the IC50 in the assay with HepG2 came to 10.5 µM; with A549 it was 25.6 µM; with LoVo [1] it was 14.9 µM. Besides, the outcome with LoVo [23], in the assay with LoVo [24], in the assay on LoVo [25], in the assay on LoVo [10], with LoVo [26] and with LoVo [28] was Active. Also, the result in the assay with LoVo [20] was Active. Also, the Activity amounted to 29.5% in the assay with LoVo [3] and 2% in the assay with LoVo [15]. Moreover, the outcome in the assay on LoVo [27] was inactive.
With `COc1ccc2oc(=O)cc(OCc3cn([C@@H]4c5cc6c(cc5[C@@H](c5cc(OC)c(O)c(OC)c5)[C@H]5C(=O)OC[C@@H]54)OCO6)nn3)c2c1`, the IC50 in the assay on HepG2 turned out to be 8 µM; in the assay on A549, 19.6 µM; in the assay with HeLa, 18.3 µM; with LoVo [1], 9.4 µM.
As for `COc1cc([C@@H]2c3cc4c(cc3[C@@H](n3cc(COc5cc(=O)oc6cc(Br)ccc56)nn3)[C@H]3COC(=O)[C@H]23)OCO4)cc(OC)c1O`, the half-maximal inhibitory concentration (IC50) with HepG2 is 15.6 µM; with A549, 23.8 µM; in the assay with HeLa, greater than 100 µM; in the assay with LoVo [1] it was 24.2 µM.
The matching figures for `COc1cc([C@@H]2c3cc4c(cc3[C@@H](n3cc(CNc5cc(=O)oc6cc(Br)ccc56)nn3)[C@H]3COC(=O)[C@H]23)OCO4)cc(OC)c1O`: 13.6 µM, 13.3 µM, 19.8 µM and 7.3 µM.
Turning to `COc1cc([C@@H]2c3cc4c(cc3[C@@H](n3cc(CNc5cc(=O)oc6ccc(C)cc56)nn3)[C@H]3COC(=O)[C@H]23)OCO4)cc(OC)c1O`, the half-inhibitory concentration (IC50) in the assay on HepG2 was determined as 17.2 µM; in the assay with A549, 34.8 µM; with HeLa, 38.3 µM; with LoVo [1], 76 µM.
The matching figures for `COc1cc([C@@H]2c3cc4c(cc3[C@@H](n3cc(CNc5cc(=O)oc6ccccc56)nn3)[C@H]3COC(=O)[C@H]23)OCO4)cc(OC)c1O`: 27.5 µM, 21.4 µM, 27.2 µM and 38.6 µM.
Regarding `COc1cc([C@@H]2c3cc4c(cc3[C@@H](n3cc(COc5cc(=O)oc6ccc(Br)cc56)nn3)[C@H]3COC(=O)[C@H]23)OCO4)cc(OC)c1O`, the half-maximal inhibitory concentration (IC50) with HepG2 was 4 µM; in the assay with A549, 27.7 µM; with HeLa, 20.1 µM; with LoVo [1] it was 19.8 µM.
`COc1cc([C@@H]2c3cc4c(cc3[C@@H](n3cc(CNc5cc(=O)oc6ccc(Br)cc56)nn3)[C@H]3COC(=O)[C@H]23)OCO4)cc(OC)c1O`: the IC50 in the assay with HepG2 stood at 9.3 µM; in the assay on A549 it was 8.6 µM; in the assay with HeLa, 15.2 µM; in the assay with LoVo [1], 8.7 µM.
As to `COc1cc([C@@H]2c3cc4c(cc3[C@@H](n3cc(COc5cc(=O)oc6ccccc56)nn3)[C@H]3COC(=O)[C@H]23)OCO4)cc(OC)c1O`, the IC50 is 31.3 µM with HepG2, greater than 100 µM in the assay with A549, 32.2 µM in the assay on HeLa and 40.8 µM in the assay on LoVo [1].
`COc1ccc2c(NCc3cn([C@@H]4c5cc6c(cc5[C@@H](c5cc(OC)c(O)c(OC)c5)[C@H]5C(=O)OC[C@@H]54)OCO6)nn3)cc(=O)oc2c1`: the IC50 is 11.1 µM with HepG2, 28.1 µM with A549, 48.2 µM in the assay on HeLa and 12.6 µM in the assay on LoVo [1].
